pIC50: −log10 of the molar value.

The assay addresses T1, recombinant human KLK5 (Homo sapiens, UniProt Q9Y337).
T1 construct: purchased Novoprotein or R&D Systems C415 or 1108-SE
T1 sequence (Q9Y337 23-293): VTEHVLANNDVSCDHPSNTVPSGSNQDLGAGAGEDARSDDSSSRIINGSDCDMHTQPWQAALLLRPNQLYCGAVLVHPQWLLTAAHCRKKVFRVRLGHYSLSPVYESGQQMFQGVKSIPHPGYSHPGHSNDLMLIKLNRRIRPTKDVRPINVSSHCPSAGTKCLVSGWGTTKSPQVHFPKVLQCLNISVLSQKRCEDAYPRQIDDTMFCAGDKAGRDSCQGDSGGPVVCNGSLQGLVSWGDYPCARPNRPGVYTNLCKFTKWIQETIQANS
In words: Kallikrein (KLK) 5 enzymatic assay (Boc-VPR-AMC fluorogenic substrate). In kind it is biochemical. Particulars: recombinant human KLK5 0.1 μg/well, Boc-VPR-AMC 100 μM, pH 7.5, room temperature, 1% DMSO; tested a minimum of three times. The text has this: Kallikrein-5 (KLK5) is a member of the serine protease family of proteolytic enzymes, confirmed to have trypsin-like activity (Michael I P, et al. Biochemical and enzymatic characterization of human kallikrein 5 (hK5), a novel serine protease potentially involved in cancer progression (J. Biol. Chem. 2005 Apr. 15; 280 (15): 14628-35). Boc-VPR-AMC is a fluorogenic peptide substrate composed of the short peptide chain, Valine-Proline-Arginine (VPR) and the fluorophore, 7-amino-4-methylcoumarin (AMC). KLK5 is able to cleave the fluorogenic peptide substrate Boc-VPR-AMC, releasing the AMC fluorophore, which causes a fluorescent emission in proportion with the enzymatic activity of KLK5. The KLK5 enzymatic activity is monitored by measuring fluorescent emission at wavelengths of 380 nm (excitation) and 460 nm (emission).
The IC50 value of compounds against KLK5 (i.e., the concentration of the compound that inhibits 50% of the enzymatic activity) was calculated according to the procedure reported by R&D systems (Recombinant human KLK5, Catalog Number: 1108-SE), with the exception the pH of the assay was modified from 8.0 to 7.5. Specifically, recombinant human KLK5 (Novoprotein Catalog #C415 or R&D systems Catalog #1108-SE) and fluorogenic peptide Boc-VPR-AMC substrate (R&D Catalog #ES011) were each separately diluted in assay buffer (0.1 M NaH2PO4 buffer, pH 7.5). The compounds of the disclosure were dissolved in DMSO at a concentration of 10 mM. A portion of this stock solution was added to the recombinant human KLK5 solution to provide a desired concentration of the compounds and the mixture was incubated at room temperature. The reaction was initiated by the addition of the fluorogenic peptide substrate at room temperature. The final concentration of recombinant human KLK5 was 0.1 μg/well and the final concentration of the fluorogenic substrate was 100 μM (final volume of 100 μL, 1% DMSO). The assays were performed in 96 well F16 Black Maxisorp Plate (Nunc Catalog #475515). Controls included assay buffer alone and enzyme solutions to which DMSO was added. The reaction rates were measured spectrophotometrically by excitation at 380 nm and emission at 460 nm on a Biotek Synergy H1 plate reader.
The reaction rate for enzyme alone was compared to the reaction rate of enzyme in the presence of compound and the percent inhibition was calculated as shown below:
Percent Inhibition=[Rate with inhibitor/Rate without inhibitor)]×100
An IC50 indicates a compound concentration that inhibits 50% of the enzymatic activity. Compounds were tested a minimum of three times.
Regarding `COc1c(-c2ccc3nn(C4CCC4)c(COc4ccccc4CC(=O)O)c3c2)ccnc1C(=N)N` [Compound 24b, 2-(2-((5-(2-carbamimidoyl-3-methoxypyridin-4-yl)-2-cyclobutyl-2H-indazol-3-yl)methoxy)phenyl)acetic acid], the pIC50 (in general, the IC50 on a negative log10 scale, so that one unit is a factor of ten) is more than 6.00.
For the compound `CC(C)n1nc(COc2ccccc2CC(=O)O)c2cc(-c3ccc4nccc(N)c4c3)ccc21` [Compound 25c, 2-(2-((5-(4-aminoquinolin-6-yl)-1-isopropyl-1H-indazol-3-yl)methoxy)phenyl)acetic acid], the negative logarithm of the IC50 (pIC50) was 5.00 to 6.00.
As for `CC(C)n1nc(COc2ccccc2CC(=O)O)c2cc(-c3ccc4[nH]c(N)nc4c3)ccc21` [Compound 26c, 2-(2-((5-(2-amino-1H-benzo[d]imidazol-5-yl)-1-isopropyl-1H-indazol-3-yl)methoxy)phenyl)acetic acid], the pIC50 was 5.00 to 6.00.
For the compound `CC(C)n1nc(COc2ccccc2CC(=O)O)c2cc(-c3ccc4oc(N)nc4c3)ccc21` [Compound 27c, 2-(2-((5-(2-aminobenzo[d]oxazol-5-yl)-1-isopropyl-1H-indazol-3-yl)methoxy)phenyl)acetic acid], the pIC50 is less than 5.00.
`N=C(N)c1cccc(-c2ccc3c(c2)c(COc2ccccc2CC(=O)O)nn3C2CCC2)c1` [Compound 28d, 2-(2-((5-(3-carbamimidoylphenyl)-1-cyclobutyl-1H-indazol-3-yl)methoxy)phenyl)acetic acid]: the pIC50 was more than 6.00.
With `CC(C)n1nc(COc2ccccc2CC(=O)O)c2cc(-c3ccc(C(=N)N)c(O)c3)ccc21` [Compound 29c, 2-(2-((5-(4-carbamimidoyl-3-hydroxyphenyl)-1-isopropyl-1H-indazol-3-yl)methoxy)phenyl)acetic acid] the figure was less than 5.00.
Take `CC(C)n1nc(COc2ccccc2CC(=O)O)c2cc(-c3cccc4c(N)noc34)ccc21` [Compound 30c, 2-(2-((5-(3-aminobenzo[d]isoxazol-7-yl)-1-isopropyl-1H-indazol-3-yl)methoxy)phenyl)acetic acid]: the pIC50 is less than 5.00.
Take `CC(C)n1nc(COc2ccccc2CC(=O)O)c2cc(-c3cccc4c(N)n[nH]c34)ccc21` [Compound 31c, 2-(2-((3′-amino-1-isopropyl-1H, 1′H-[5,7′-biindazol]-3-yl)methoxy)phenyl)acetic acid]: the pIC50 was 5.00 to 6.00.
For the compound `CC(C)n1nc(COc2ccccc2CC(=O)O)c2cc(-c3ccc4[nH]nc(N)c4c3)ccc21` [Compound 32c, 2-(2-((3′-amino-1-isopropyl-1H, 1′H-[5,5′-biindazol]-3-yl)methoxy)phenyl)acetic acid], the pIC50 is less than 5.00.
`CC(C)n1nc(COc2ccccc2CC(=O)O)c2cc(-c3ccn4ncc(N)c4n3)ccc21` [Compound 33c, 2-(2-((5-(3-aminopyrazolo[1,5-a]pyrimidin-5-yl)-1-isopropyl-1H-indazol-3-yl)methoxy)phenyl)acetic acid]: the pIC50 was less than 5.00.
For the compound `CC(C)n1nc(COc2ccccc2CC(=O)O)c2cc(-c3ccc4cc(N)ncc4c3)ccc21` [Compound 34c, 2-(2-((5-(3-aminoisoquinolin-7-yl)-1-isopropyl-1H-indazol-3-yl)methoxy)phenyl)acetic acid], the pIC50 was less than 5.00.
Turning to `CC(C)n1nc(COc2ccccc2CC(=O)O)c2cc(-c3ccc4nc(N)ccc4c3)ccc21` [Compound 35c, 2-(2-((5-(2-aminoquinolin-6-yl)-1-isopropyl-1H-indazol-3-yl)methoxy)phenyl)acetic acid], the pIC50 was less than 5.00.
With `CC(C)n1nc(COc2ccccc2CC(=O)O)c2cc(-c3ccc4cc(N)ccc4c3)ccc21` [Compound 36c, 2-(2-((5-(6-aminonaphthalen-2-yl)-1-isopropyl-1H-indazol-3-yl)methoxy)phenyl)acetic acid] the figure was less than 5.00.
Regarding `Nc1nccc2ccc(-c3ccc4c(c3)c(COc3ccccc3CC(=O)O)nn4C3CCC3)cc12` [Compound 37c, 2-(2-((5-(1-aminoisoquinolin-7-yl)-1-cyclobutyl-1H-indazol-3-yl)methoxy)phenyl)acetic acid], the pIC50 was more than 6.00.
Turning to `CC(C)n1nc(COc2ccccc2CC(=O)O)c2cc(-c3cc4cc(N)ccc4cn3)ccc21` [Compound 38c, 2-(2-((5-(6-aminoisoquinolin-3-yl)-1-isopropyl-1H-indazol-3-yl)methoxy)phenyl)acetic acid], the pIC50 was less than 5.00.
With `CC(C)n1nc(COc2ccccc2CC(=O)O)c2cc(-c3ccc4ncnc(N)c4c3)ccc21` [Compound 39c, 2-(2-((5-(4-aminoquinazolin-6-yl)-1-isopropyl-1H-indazol-3-yl)methoxy)phenyl)acetic acid], the pIC50 was less than 5.00.
The figure for `CC(C)n1nc(COc2ccccc2CC(=O)O)c2cc(-c3cccc4c(N)nccc34)ccc21` [Compound 40b, 2-(2-((5-(1-aminoisoquinolin-5-yl)-1-isopropyl-1H-indazol-3-yl)methoxy)phenyl)acetic acid] is more than 6.00; for `CC(C)n1nc(COc2ccccc2CC(=O)O)c2cc(-c3ccc4c(N)nc(N)nc4c3)ccc21` [Compound 41c, 2-(2-((5-(2,4-diaminoquinazolin-7-yl)-1-isopropyl-1H-indazol-3-yl)methoxy)phenyl)acetic acid] it is less than 5.00; for `Nc1nccc2ccc(-c3ccc4c(c3)c(COc3ccccc3CC(=O)O)nn4C3CCCC3)cc12` [Compound 42d, 2-(2-((5-(1-aminoisoquinolin-7-yl)-1-cyclopentyl-1H-indazol-3-yl)methoxy)phenyl)acetic acid] it is more than 6.00.
Consider `CC(C)n1nc(COc2ccccc2CC(=O)O)c2cc(-c3ccc4c(N)cccc4c3)ccc21` [Compound 43d, 2-(2-((5-(5-aminonaphthalen-2-yl)-1-isopropyl-1H-indazol-3-yl)methoxy)phenyl)acetic acid], for which the pIC50 was less than 5.00.
As to `CC(C)n1nc(COc2ccccc2CC(=O)O)c2cc(-c3ccc4ccnc(O)c4c3)ccc21` [Compound 44d, 2-(2-((5-(1-hydroxyisoquinolin-7-yl)-1-isopropyl-1H-indazol-3-yl)methoxy)phenyl)acetic acid], the pIC50 was less than 5.00.
For `CC(C)n1nc(COc2ccccc2CC(=O)O)c2cc(-c3cccc(-c4c[nH]nc4N)c3)ccc21` [Compound 45c, 2-(2-((5-(3-(3-amino-1H-pyrazol-4-yl)phenyl)-1-isopropyl-1H-indazol-3-yl)methoxy)phenyl)acetic acid], the pIC50 is less than 5.00.
`CC(C)n1nc(COc2ccccc2CC(=O)O)c2cc(-c3ccc4cc(Cl)nc(N)c4c3)ccc21` [Compound 46d, 2-(2-((5-(1-amino-3-chloroisoquinolin-7-yl)-1-isopropyl-1H-indazol-3-yl)methoxy)phenyl)acetic acid]: the pIC50 is less than 5.00.
With `CC(C)n1nc(COc2ccccc2CC(=O)O)c2cc(-c3cccc(-c4nn[nH]n4)c3)ccc21` [Compound 47c, 2-(2-((5-(3-(2H-tetrazol-5-yl)phenyl)-1-isopropyl-1H-indazol-3-yl)methoxy)phenyl)acetic acid] the figure was less than 5.00.
The figure for `Nc1nccc2ccc(-c3ccc4c(c3)c(COc3ccccc3CC(=O)O)nn4C3CCCCC3)cc12` [Compound 48d, 2-(2-((5-(1-aminoisoquinolin-7-yl)-1-cyclohexyl-1H-indazol-3-yl)methoxy)phenyl)acetic acid] is more than 6.00.
On to `CC(C)n1nc(COc2ccccc2CC(=O)O)c2cc(-c3ccc4c(N)noc4c3)ccc21` [Compound 49a, 2-(2-((5-(3-aminobenzo[d]isoxazol-6-yl)-1-isopropyl-1H-indazol-3-yl)methoxy)phenyl)acetic acid], for which the pIC50 was less than 5.00.
As to `CC(C)n1nc(COc2ccccc2CC(=O)O)c2cc(-c3ccc4ccc(N)nc4c3)ccc21` [Compound 50c, 2-(2-((5-(2-aminoquinolin-7-yl)-1-isopropyl-1H-indazol-3-yl)methoxy)phenyl)acetic acid], the pIC50 is less than 5.00.

(Values after patent US20240239752A1, “BICYCLIC HETEROAROMATIC INHIBITORS OF KLK5” (BioCryst Pharmaceuticals, Inc., priority 2021, published 2024).)
